The subject of data set [1] is HeLa S3 cells. Nature of the data set: MIC value against HeLa S3 cells (microplate method). The format is cell-based. Conditions: Homo sapiens, 96 h, 2×10^4 cells/ml, 4 days, Giemsa staining. The text has this:
(§1) a. MIC value against HeLa S3 cells and Ehrlich cells (microplate method) Number of cells: 2×10^4 cells/ml Culture medium: Eagle's MEM+20% calf embryonic serum Culture time: 4 days Judgement: Giemsa staining

Data set [2] concerns Sarcoma 180 ascites cells. As to the kind of experiment: Effect on Sarcoma 180 carcinoma: intraperitoneal inoculation, mean survival days. The format is in vivo, ICR-strain mice. The following applies: 200 mg/kg, once a day for 7 days. As to the method: Sarcoma 180 ascites cells (1×10^6 cells/head) were inocualted intraperitoneally into ICR-strain mice (female, 6 weeks old, each group consisting of 4 or 5 mice), and after 24 hours, the intraperitoneal administration of a test drug was started, and effected once a day for 7 days. The effect thereof was judged from the mean survival days. The test drug was used in the form of a solution or suspension in a saline solution or a 0.3% carboxymethyl cellulose-containing saline solution. [formula]

The test system of data set [3] is Ehrlich ascites carcinoma cells. As to the kind of experiment: Effect on Ehrlich carcinoma (i): intraperitoneal inoculation, mean survival days. The format is in vivo, ICR-strain mice. Conditions: Mus musculus, ip, 168 h, once a day for 7 days, read-out: T/C (mean survival days). On the procedure: (i) Ehrlich ascites carcinoma cells (1×10^6 cells/head) were inoculated intraperitoneally into ICR-strain mice (female, 6 to 7 weeks old, each group consisting of 5 or 4 mice), and after 24 hours, the […] The effect thereof was judged from the mean survival days.
The test drugs were used in the form of a solution or suspension in a saline solution or a 0.3% carboxymethyl cellulose-containing saline solution. [formula]

Data set [4] can be described thus: Acute toxicity. The following applies: mouse, in vivo, ip. From the text: The test drugs were used in the form of a solution or suspension in a saline solution or a 0.3% carboxymethyl cellulose-containing saline solution.
For data set [5], the system named is Ehrlich cells. Nature of the data set: MIC value against Ehrlich cells (microplate method). The format is cell-based. Conditions: 96 h, 2×10^4 cells/ml, 4 days, Giemsa staining.
Source text: as §1

For data set [6], the system named is L-1210 ascites cells. Nature of the data set: Effect on L-1210 leukemia (i): intraperitoneal inoculation, mean survival days. The following applies: 50 mg/kg. The format is in vivo, BDF1-strain mice. As to the method:
(i) L-1210 ascites cells (1×10^5 cells/head) were inoculated intraperitoneally into BDF1 -strain mice (female, 6 weeks old, each group consisting of 4 mice), and after 24 hours, the intraperitoneal administration of a test drug was started and effected once a day. The effect thereof was judged from the mean survival days. The test drug was used in the form of a solution or suspension in a saline solution or a 0.3% carboxymethyl cellulose-containing saline solution.
T/C was calculated in the same manner as in above b (i).

Setting [7] is: intraperitoneal, once, male mice, observed for 7 days.

In brackets after ≈: the same amount, converted by molar mass.

Take `CCCCCCN1CCN(Cc2ccc(Nc3ccccn3)cc2)C(=O)C1=O` [Compound 1]: the MIC in data set [1] and in data set [5] was 0.2 µg/mL (≈ 0.526 µM) in each case. The “T/C (mean survival days)” value in data set [2] is recorded as greater than 151.6%. Also, the “Survival Ratio in Days Shown in Parenthesis” value in data set [2] (35 days) is given as 2/4. The response vs control in vivo at 200 mg/kg in data set [3] was greater than 221%. The LD50 (in general, the dose expected to kill half of the subjects tested) at 168 h in data set [4] was greater than 500 mg/kg.

For `O=C1C(=O)N(Cc2ccc(Nc3ccccn3)cc2)CCN1Cc1ccccc1` [Compound 2], the MIC in data set [1] and in data set [5] was 0.39 to 0.78 µg/mL (≈ 1.01 to 2.02 µM) throughout. The response vs control in vivo at 100 mg/kg in data set [3] was greater than 192%. Moreover, in data set [4] (setting [7]), the LD50 at 168 h is greater than 200 mg/kg.

As for `O=C1C(=O)N(Cc2ccc(Nc3ccc([N+](=O)[O-])cn3)cc2)CCN1Cc1ccccc1` [Compound 3], the MIC (usually the lowest concentration that inhibits growth of the organism) in data set [1] was 3.13 to 6.25 µg/mL (≈ 7.25 to 14.5 µM); in data set [5], 6.25 µg/mL (≈ 14.5 µM).

`CCCCCCN1CCN(Cc2ccc(Nc3ccncc3)cc2)C(=O)C1=O` [Compound 5]: the MIC in data set [1] and in data set [5] was 3.13 µg/mL (≈ 8.23 µM) in each case.

On to `O=C1C(=O)N(c2cnccn2)CCN1Cc1ccc(Nc2ncccn2)cc1` [Compound 8], for which the MIC was 0.78 µg/mL (≈ 2.08 µM) in data set [1] and 0.39 µg/mL (≈ 1.04 µM) in data set [5].

`O=C1C(=O)N(Cc2cnccn2)CCN1Cc1ccc(Nc2ncccn2)cc1` [Compound 9]: the MIC is 1.56 to 3.13 µg/mL (≈ 4.01 to 8.04 µM) in data set [1] and 6.25 µg/mL (≈ 16 µM) in data set [5].

Consider `Nc1cccc(CN2CCN(Cc3ccc(Nc4ncccn4)cc3)C(=O)C2=O)n1` [Compound 10], for which the MIC in data set [1] was 1.56 to 3.13 µg/mL (≈ 3.87 to 7.76 µM); in data set [5], 12.5 µg/mL (≈ 31 µM).

As for `O=C1C(=O)N(CC2CCCCC2)CCN1Cc1ccc(Nc2ncccn2)cc1` [Compound 11], the MIC in data set [1] and in data set [5] was 1.56 µg/mL (≈ 3.96 µM) in each case.

`O=C1C(=O)N(c2ccccc2)CCN1Cc1ccc(Nc2ncccn2)cc1` [Compound 12]: the MIC in data set [1] and in data set [5] was 0.78 µg/mL (≈ 2.09 µM) each time. This compound came in with an LD50 at 168 h in data set [4] (setting [7]) greater than 500 mg/kg.

For the compound `O=C1C(=O)N(Cc2ccc(Nc3ncccn3)cc2)CCN1CCc1ccccc1` [Compound 14], the MIC in data set [1] and in data set [5] was 0.39 µg/mL (≈ 0.971 µM) each time. Moreover, the response vs control in vivo at 100 mg/kg in data set [3] is greater than 179%. The 50% lethal dose (LD50) at 168 h in data set [4] (setting [7]) is greater than 500 mg/kg.

`O=C1C(=O)N(Cc2ccc(Nc3ncccn3)cc2)CCN1CCCc1ccccc1` [Compound 15]: the MIC in data set [1] and in data set [5] was 1.56 µg/mL (≈ 3.75 µM) throughout. In data set [4] (setting [7]), this compound displayed an LD50 at 168 h greater than 500 mg/kg.

Regarding `O=C1C(=O)N(Cc2ccc(Nc3ncccn3)cc2)CCN1Cc1ccc(Cl)cc1` [Compound 16], the MIC in data set [1] and in data set [5] was 1.56 µg/mL (≈ 3.7 µM) each time.

As to `COC(=O)c1ccc(CN2CCN(Cc3ccc(Nc4ncccn4)cc3)C(=O)C2=O)cc1` [Compound 17], the MIC in data set [1] and in data set [5] was 6.25 µg/mL (≈ 14 µM) each time.

For the compound `CC(c1ccccc1)N1CCN(Cc2ccc(Nc3ncccn3)cc2)C(=O)C1=O` (centres unmarked) [Compound 18], the MIC is 3.13 µg/mL (≈ 7.8 µM) in data set [1] and 6.25 µg/mL (≈ 15.6 µM) in data set [5].

Regarding `CCCCCCN1CCN(Cc2ccc(Nc3ccncn3)cc2)C(=O)C1=O` [Compound 19], the MIC in data set [1] and in data set [5] was 1.56 µg/mL (≈ 4.09 µM) in each case. Also, the LD50 at 168 h in data set [4] (setting [7]) was greater than 500 mg/kg.

On to `O=C1C(=O)N(Cc2ccc(Nc3ccncn3)cc2)CCN1Cc1ccccc1` [Compound 20], for which the values for the MIC in data set [1] and in data set [5] were 0.78 µg/mL (≈ 2.01 µM) and 1.56 µg/mL (≈ 4.03 µM), respectively. This compound also gave an LD50 at 168 h in data set [4] (setting [7]) greater than 500 mg/kg.

Turning to `CCCCCCN1CCN(Cc2ccc(Nc3cnccn3)cc2)C(=O)C1=O` [Compound 21], the MIC in data set [1] and in data set [5] was 1.56 µg/mL (≈ 4.09 µM) throughout.

On to `CC(c1ccc(Nc2ncccn2)cc1)N1CCN(Cc2ccccc2)C(=O)C1=O` (centres unmarked) [Compound 22], for which the MIC in data set [1] is 3.13 to 6.25 µg/mL (≈ 7.8 to 15.6 µM); in data set [5], 6.25 µg/mL (≈ 15.6 µM).

On to `O=C1C(=O)N(Cc2ccc(Nc3ncccn3)cc2)CCN1Cc1ccc(Nc2ncccn2)cc1` [Compound 23], for which the MIC in data set [1] and in data set [5] was 6.25 µg/mL (≈ 13 µM) each time. Further, the response vs control in vivo at 100 mg/kg in data set [3] stood at 159%.

With `O=C1C(=O)N(Cc2ccc(Nc3ccccn3)cc2)CCN1Cc1ccc(Nc2ccccn2)cc1` [Compound 24], the MIC in data set [1] and in data set [5] was 3.13 µg/mL (≈ 6.54 µM) in each case.

Take `Cc1ccc(Nc2ccc(CN3CCN(Cc4ccccc4)C(=O)C3=O)cc2)nc1` [Compound 25]: the MIC in data set [1] and in data set [5] was 0.39 µg/mL (≈ 0.974 µM) throughout.

In the case of `CC=CC=CCN1CCN(Cc2ccc(N(CC)CC)cc2)C(=O)C1=O` [Compound 27], the MIC in data set [1] and in data set [5] was 6.25 µg/mL (≈ 17.6 µM) each time.

In turn, `CCCCCCN1CCN(Cc2ccc(N(CC)CC)c(Cl)c2)C(=O)C1=O` [Compound 28] came in with an MIC in data set [1] of 12.5 µg/mL (≈ 31.7 µM). In addition, in data set [3], the response vs control in vivo at 40 mg/kg is greater than 173% and the response vs control in vivo at 100 mg/kg was 165%. In data set [5], this compound showed an MIC of 12.5 µg/mL (≈ 31.7 µM).

As for `CCCCCCN1CCN(Cc2ccc(N(CC)CC)c(C)c2)C(=O)C1=O` [Compound 29], the MIC in data set [1] and in data set [5] was 12.5 µg/mL (≈ 33.5 µM) each time. Besides, the response vs control in vivo at 100 mg/kg in data set [3] was determined as 184%.

Turning to `CCCCCCN1CCN(Cc2ccc(N(CC)CC)cc2Cl)C(=O)C1=O` [Compound 30], the MIC in data set [1] and in data set [5] was 3.13 µg/mL (≈ 7.94 µM) in each case. For the same compound, the response vs control in vivo at 100 mg/kg in data set [3] is 152%.

For `CCCCCCN1CCN(Cc2ccc(N3CCCCC3)cc2)C(=O)C1=O` [Compound 31], the MIC in data set [1] and in data set [5] was 3.13 µg/mL (≈ 8.42 µM) throughout.

In the case of `CCCCCCN1CCN(Cc2ccc(NCC)cc2)C(=O)C1=O` [Compound 32], the MIC in data set [1] and in data set [5] was 6.25 µg/mL (≈ 18.9 µM) each time.

Take `CCCCCCN1CCN(Cc2ccc(NC(C)C)cc2)C(=O)C1=O` [Compound 33]: the MIC in data set [1] and in data set [5] was 0.78 µg/mL (≈ 2.26 µM) each time.

As to `CCCCCCN1CCN(Cc2ccc(NC(=O)CCl)cc2)C(=O)C1=O` [Compound 34], the MIC in data set [1] and in data set [5] was 0.39 µg/mL (≈ 1.03 µM) throughout. For the same compound, in data set [3], the response vs control in vivo at 100 mg/kg is greater than 142%. In addition, the response vs control in vivo at 200 mg/kg in data set [3] is 157%.

Take `CCCCCCN1CCN(Cc2ccc(NCc3ccncc3)cc2)C(=O)C1=O` [Compound 35]: the MIC in data set [1] and in data set [5] was 6.25 µg/mL (≈ 15.8 µM) throughout. For the same compound, the response vs control in vivo at 50 mg/kg in data set [3] (50 mg/kg) came to 146%. Moreover, in data set [3], the response vs control in vivo at 100 mg/kg is greater than 187%.

As to `CCN(CC)c1ccc(CN2CCN(Cc3cnc(Cl)nc3Cl)C(=O)C2=O)cc1` [Compound 36], the MIC in data set [1] and in data set [5] was 12.5 µg/mL (≈ 28.6 µM) throughout. Further, the response vs control in vivo at 40 mg/kg in data set [3] was greater than 190%. Besides, the response vs control in vivo at 100 mg/kg in data set [3] came out at 204%.

Consider `CCN(CC)c1ccc(CN2CCN(Cc3ccccn3)C(=O)C2=O)cc1` [Compound 38], for which the MIC in data set [1] and in data set [5] was 25 µg/mL (≈ 68.2 µM) each time. Besides, the response vs control in vivo at 100 mg/kg in data set [3] was 160%.

For `CCN(CC)c1ccc(CN2CCN(Cc3cccnc3)C(=O)C2=O)cc1` [Compound 39], the MIC in data set [1] and in data set [5] was 25 µg/mL (≈ 68.2 µM) throughout. Besides, the response vs control in vivo at 100 mg/kg in data set [3] is greater than 164%.

Take `CCN(CC)c1ccc(CNCCN2CCN(Cc3ccc(N(CC)CC)cc3)C(=O)C2=O)cc1` [Compound 40]: the MIC in data set [1] and in data set [5] was 12.5 µg/mL (≈ 26.1 µM) in each case. The response vs control in vivo at 30 mg/kg in data set [3] (30 mg/kg) was 154%.

`Cc1cc(Nc2ccc(CN3CCN(Cc4ccccc4)C(=O)C3=O)cc2)ncc1N` [Compound 43]: the MIC in data set [1] and in data set [5] was less than 0.05 µg/mL in each case. The “T/C (mean survival days)” value in data set [6] (7 administrations) stood at 143%. This compound had an LD50 at 168 h in data set [4] (setting [7]) greater than 200 mg/kg.

Take `Cc1cc(Nc2ccc(CN3CCN(Cc4ccccc4)C(=O)C3=O)cc2)nc(C)c1N` [Compound 44]: the MIC in data set [1] and in data set [5] was 0.78 µg/mL (≈ 1.82 µM) in each case. Moreover, in data set [6] (3 administrations), the “T/C (mean survival days)” value came out at 137%. Further, the LD50 at 168 h in data set [4] (setting [7]) was greater than 200 mg/kg.

`Nc1cnc(Nc2ccc(CN3CCN(Cc4ccccc4)C(=O)C3=O)cc2)nc1` [Compound 45]: the MIC in data set [1] and in data set [5] was 0.05 µg/mL (≈ 0.124 µM) throughout.
